Data from ChEMBL document CHEMBL1134421, “Anticancer properties for 4,4'-dihydroxybenzophenone-2,4-dinitrophenylhydrazone (A-007)/3,7-diaminophenothiazin-5-ium double salts” (Bioorg Med Chem Lett, 2001).
In brackets after ≈: the same amount, converted by molar mass.

Tests used:
[1] = system: Breast cancer cell line; experiment: Tested for anticancer activity against human breast cancer; type: functional, cell-based
[2] = Tested for anticancer activity against human lung cancer (NSCLC); type: functional
[3] = organism: Rattus norvegicus; experiment: Tested for diffusion of compound into rat skin receptor fluid, at a dose of 0.05 mg; type: functional
[4] = organism: Homo sapiens; experiment: Tested against normal human peripheral blood dendritic cells, expressed as IC50; type: functional, cell-based
[5] = system: Melanoma cell; experiment: Tested for anticancer activity against human melanoma; type: functional, cell-based
[6] = system: Ovarian cancer cell line; experiment: Tested for anticancer activity against human ovarian cancer; type: functional, cell-based
[7] = Homo sapiens, Melanoma cell, read-out: IC50

Structure (SMILES) | IC50 [1] | IC50 [2] | Activity [3] | IC50 [4] | IC50 ([5]; melanoma cell) | IC50 [6] | IC50 [5, 7]
CN(C)c1ccc2nc3ccc(N(C)C)cc3[s+]c2c1.O=[N+]([O-])c1ccc(NN=C(c2ccc(O)cc2)c2ccc(O)cc2)c([N+](=O)[O-])c1.[Cl-] | 2.5 µg/mL | 2 µg/mL | 9 ng/mL | > 10 µg/mL | 1 µg/mL | 2 µg/mL | –
Cc1cc2nc3ccc(N(C)C)cc3[s+]c2cc1N.O=[N+]([O-])c1ccc(NN=C(c2ccc(O)cc2)c2ccc(O)cc2)c([N+](=O)[O-])c1.[Cl-] | 1.5 µg/mL | 3 µg/mL | – | – | – | – | 4 µg/mL
Nc1ccc2nc3ccc(N)cc3[s+]c2c1.O=[N+]([O-])c1ccc(NN=C(c2ccc(O)cc2)c2ccc(O)cc2)c([N+](=O)[O-])c1.[Cl-] | 0.9 µg/mL | > 10 µg/mL | – | – | – | 0.2 µg/mL | –
COc1cccc2c1C(=O)c1c(O)c3c(c(O)c1C2=O)C[C@@](O)(C(=O)CO)C[C@@H]3O[C@H]1C[C@H](N)[C@H](O)[C@H](C)O1 [DOXORUBICIN] | 0.9 µg/mL (≈ 1.66 µM) | > 30 µg/mL | – | – | – | – | > 5 µg/mL
O=[N+]([O-])c1ccc(NN=C(c2ccc(O)cc2)c2ccc(O)cc2)c([N+](=O)[O-])c1 [SIVIFENE] | > 10 µg/mL | 4 µg/mL (≈ 10.1 µM) | – | > 10 µg/mL | – | 9 µg/mL (≈ 22.8 µM) | > 10 µg/mL
